For 34 compounds, IC50 results are on record in patent publication US8609675B2, “Fused Tricyclic Compounds as novel mTOR inhibitors” (Merck Sharp & Dohme Corp., priority 2009, dated 2013).

Where only a bound is given, the exact number is not on record here.

This test concerns the target human mTOR enzyme (Homo sapiens, UniProt P42345). Briefly: mTOR Kinase Assay. In kind it is biochemical. To be noted: 5 μM ATP, 0.1 μM GST-S6K, rated A, B or C. The procedure:
The mTOR assay buffer contained 10 mM hepes (pH 7.4), 50 mM NaCl, 100 μg/ml BSA, 50 mM β-glycerophosphate, 10 mM MnCl2 and 0.5 mM DTT. 20 ng of human mTOR enzyme was preincubated with the compound for 10 minutes. 5 μM ATP and 0.1 μM GST-S6K was added. The reaction was incubated for one hour at 30° C. Anti phospho p70-S6K (about 1.7 ng/well) and anti GST-XL665 (1:1 Ratio with the substrate GST-56K) were added after incubating. The plates were read at least 2 hours after adding the anti phospho p70-S6K and the anti GST-XL665.
IC50 DETERMINATIONS: Dose-response curves were plotted from the inhibition data generated, each in duplicate, from 8 point serial dilutions of inhibitory compounds. Concentration of compound was plotted against % kinase activity, calculated by CPM of treated samples divided by CPM of untreated samples. To generate IC50 values, the dose-response curves were then fitted to a standard sigmoidal curve and IC50 values were derived by nonlinear regression analysis.
Usually IC50 stands for the concentration that gives 50% inhibition. The compound `O=C(O)CC1CCC(c2nc3c(-c4ccc(-c5ccccc5)nc4)cnn3c3[nH]ccc23)CC1` (mixture of isomers) [Compound 29] had a 50% inhibitory concentration (IC50) below 1 nM. `Cc1n[nH]c2c1c(C1CCS(=O)(=O)CC1)nc1c(-c3cnc4ccccc4c3)cnn12` [Compound 1, 3-(Quinolin-3-yl)-5-(1,1-dioxo-tetrahydro-2H-thiopyran-4-yl)-6-methyl-dipyrazolo[1,5-a:4′,3′-e]pyrimidine] came in with an IC50 of 10 to 100 nM. Regarding `Cc1n[nH]c2c1c(CC1CCC(C)(C(=O)O)CC1)nc1c(-c3ccc(-c4cccnc4)nc3)cnn12` (stereo not shown) [Compound 2], the IC50 was in the range of 1 to 10 nM. `Cc1n[nH]c2c1c(CC1CCC(C)(C(=O)O)CC1)nc1c(-c3ccc(-c4ccccc4)nc3)cnn12` (stereo not shown) [Compound 3, 1-methyl-4-((3-methyl-6-(6-phenylpyridin-3-yl)-1H-dipyrazolo[1,5-a:4′,3′-e]pyrimidin-4-yl)methyl)cyclohexanecarboxylic acid] displayed an IC50 of 1 to 10 nM. To `Cc1n[nH]c2c1c(CC1CCC(C)(C(=O)O)CC1)nc1c(-c3ccc(-c4cnn(C)c4)nc3)cnn12` (stereo not shown) [Compound 4] belongs 1 to 10 nM. To `Cc1n[nH]c2c1c(CC1CCC(C(=O)O)CC1)nc1c(-c3ccc(-c4ccccc4)nc3)cnn12` (stereo not shown) [Compound 5, 4-((3-methyl-6-(6-phenylpyridin-3-yl)-1H-dipyrazolo[1,5-a:4′,3′-e]pyrimidin-4-yl)methyl)cyclohexanecarboxylic acid] belongs 1 to 10 nM; to `Cc1n[nH]c2c1c(CC1CCC(C(=O)O)CC1)nc1c(-c3ccc(-c4cnn(C)c4)nc3)cnn12` (stereo not shown) [Compound 6, 4-((3-methyl-6-(6-(1-methyl-1H-pyrazol-4-yl)pyridin-3-yl)-1H-dipyrazolo[1,5-a:4′,3′-e]pyrimidin-4-yl)methyl)cyclohexanecarboxylic acid], 1 to 10 nM; to `Cc1n[nH]c2c1c([C@H]1CC[C@H](C(=O)O)CC1)nc1c(-c3cnc4ccccc4c3)cnn12` [Compound 7], 10 to 100 nM. The same measure for `Cc1n[nH]c2c1c([C@H]1CC[C@H](C(=O)O)CC1)nc1c(-c3ccc(-c4ccccc4)nc3)cnn12` [Compound 8, (1R,4R)-4-(3-methyl-6-(6-phenylpyridin-3-yl)-1H-dipyrazolo[1,5-a:4′,3′-e]pyrimidin-4-yl)cyclohexanecarboxylic acid]: below 1 nM; for `O=S1(=O)CCC(c2nc3c(-c4ccc(-c5ccccc5)nc4)cnn3c3[nH]ccc23)CC1` [Compound 9]: 1 to 10 nM; for `O=S1(=O)CCC(c2nc3c(-c4ccc(-c5cccnc5)nc4)cnn3c3[nH]ncc23)CC1` [Compound 10]: 10 to 100 nM.

Compound `O=S1(=O)CCC(c2nc3c(-c4cnc5ccccc5c4)cnn3c3[nH]ccc23)CC1` [Compound 11] registered an IC50 of 1 to 10 nM.

In turn, `O=S1(=O)CCC(c2nc3c(-c4cnc5ccc(F)cc5c4)cnn3c3[nH]ccc23)CC1` [Compound 12] showed a 50% inhibitory concentration (IC50) of 1 to 10 nM. In turn, `O=S1(=O)CCN(c2nc3c(-c4cnc5ccccc5c4)cnn3c3[nH]ccc23)CC1` [Compound 13] showed an IC50 of 1 to 10 nM. `O=S1(=O)CCC(c2nc3c(-c4ccc(-c5ccccc5)nc4)cnn3c3[nH]ncc23)CC1` [Compound 15]: the IC50 lay within 1 to 10 nM. To `O=S1(=O)CCC(c2nc3c(-c4cnc5ccc(F)cc5c4)cnn3c3[nH]ncc23)CC1` [Compound 16] belongs 10 to 100 nM; to `CCc1n[nH]c2c1c(N1CCS(=O)(=O)CC1)nc1c(-c3cnc4ccccc4c3)cnn12` [Compound 17], 1 to 10 nM. To `Cc1n[nH]c2c1c(C1CCS(=O)(=O)CC1)nc1c(-c3cnc4ccccc4c3)cnn12` [Compound 18] belongs 1 to 10 nM.

Consider `Cc1n[nH]c2c1c(C1CCS(=O)(=O)CC1)nc1c(-c3ccc(-c4cccnc4)nc3)cnn12` [Compound 19], for which the IC50 is 1 to 10 nM. To `Cc1n[nH]c2c1c(C1CCS(=O)(=O)CC1)nc1c(-c3ccc(-c4ccccc4)nc3)cnn12` [Compound 20] belongs 1 to 10 nM.

Take `Cc1n[nH]c2c1c(C1CCS(=O)(=O)CC1)nc1c(-c3cnc4ccc(F)cc4c3)cnn12` [Compound 21]: the IC50 was in the range of 1 to 10 nM. As for `Cc1n[nH]c2c1c(C1CCC(CC(=O)O)CC1)nc1c(-c3ccc(-c4ccccc4)nc3)cnn12` (stereo not shown) [Compound 22, 2-(4-(3-methyl-6-(6-phenylpyridin-3-yl)-1H-dipyrazolo[1,5-a:4′,3′-e]pyrimidin-4-yl)cyclohexyl)acetic acid], the IC50 is below 1 nM. `O=C(O)[C@H]1CC[C@H](c2nc3c(-c4ccc(-c5ccccc5)nc4)cnn3c3[nH]ccc32)CC1` [Compound 23, (trans)-4-(3-(6-phenylpyridin-3-yl)-8H-pyrazolo[1,5-a]pyrrolo[3,2-e]pyrimidin-5-yl)cyclohexanecarboxylic acid] showed an IC50 of 1 to 10 nM. `O=C([C@H](O)CO)N1CCC(c2nc3c(-c4ccc(-c5ccccc5)nc4)cnn3c3[nH]ccc23)CC1` [Compound 24, (R)-2,3-dihydroxy-1-(4-(3-(6-phenylpyridin-3-yl)-8H-pyrazolo[1,5-a]pyrrolo[3,2-e]pyrimidin-5-yl)piperidin-1-yl)propan-1-one] had a half-inhibitory concentration (IC50) of 1 to 10 nM.

Turning to `C[C@@H](O)C(=O)N1CCC(c2nc3c(-c4ccc(-c5ccccc5)nc4)cnn3c3[nH]ccc23)CC1` [Compound 25, (R)-2-hydroxy-1-(4-(3-(6-phenylpyridin-3-yl)-8H-pyrazolo[1,5-a]pyrrolo[3,2-e]pyrimidin-5-yl)piperidin-1-yl)propan-1-one], the IC50 lay in the range of 1 to 10 nM. Compound `Cc1n[nH]c2c1c(CNC1CCOCC1)nc1c(-c3cnc4ccccc4c3)cnn12` [Compound 26, N-((3-methyl-6-(quinolin-3-yl)-1H-dipyrazolo[1,5-a:4′,3′-e]pyrimidin-4-yl)methyl)tetrahydro-2H-pyran-4-amine] gave an IC50 of 1 to 10 nM. Consider `CS(=O)(=O)N1CCC(c2nc3c(-c4ccc(-c5ccccc5)nc4)cnn3c3[nH]ccc23)C1` (stereo not shown) [Compound 27, 5-(1-(methylsulfonyl)pyrrolidin-3-yl)-3-(6-phenylpyridin-3-yl)-8H-pyrazolo[1,5-a]pyrrolo[3,2-e]pyrimidine], for which the IC50 was 1 to 10 nM. The same measure for `CC1(C(=O)O)CC=C(c2nc3c(-c4ccc(-c5ccccc5)nc4)cnn3c3[nH]ccc23)CC1` (stereo not shown) [Compound 28]: 1 to 10 nM; for `Cc1n[nH]c2c1c(C1CCN(C(=O)[C@@H](C)O)CC1)nc1c(-c3ccc(-c4ccccc4)nc3)cnn12` [Compound 30, (R)-2-hydroxy-1-(4-(3-methyl-6-(6-phenylpyridin-3-yl)-1H-dipyrazolo[1,5-a:4′,3′-e]pyrimidin-4-yl)piperidin-1-yl)propan-1-one]: 1 to 10 nM. To `O=S1(=O)CCC(c2nc3c(-c4cnc5ccc(F)cc5c4)cnn3c3[nH]cc(Cl)c23)CC1` [Compound 31] belongs 1 to 10 nM. To `O=S1(=O)CCC(c2nc3c(-c4ccc(-c5ccccc5)nc4)cnn3c3[nH]cc(Cl)c23)CC1` [Compound 32] belongs 1 to 10 nM. In turn, `C[C@@H](O)C(=O)N1CCC(Cc2nc3c(-c4ccc(-c5ccccc5)nc4)cnn3c3[nH]ccc23)CC1` [Compound 33, (R)-2-hydroxy-1-(4-((3-(6-phenylpyridin-3-yl)-8H-pyrazolo[1,5-a]pyrrolo[3,2-e]pyrimidin-5-yl)methyl)piperidin-1-yl)propan-1-one] displayed an IC50 of 10 to 100 nM. `C[C@@H](O)C(=O)N1CCC(c2nc3c(-c4ccc(-c5ccccc5)nc4)cnn3c3[nH]cc(Cl)c23)CC1` [Compound 34, (R)-1-(4-(6-chloro-3-(6-phenylpyridin-3-yl)-8H-pyrazolo[1,5-a]pyrrolo[3,2-e]pyrimidin-5-yl)piperidin-1-yl)-2-hydroxypropan-1-one] displayed an IC50 of 1 to 10 nM.

`C[C@@H](O)C(=O)N1CCC(Oc2nc3c(-c4ccc(-c5ccccc5)nc4)cnn3c3[nH]ccc23)CC1` [Compound 35, (R)-2-hydroxy-1-(4-(3-(6-phenylpyridin-3-yl)-8H-pyrazolo[1,5-a]pyrrolo[3,2-e]pyrimidin-5-yloxy)piperidin-1-yl)propan-1-one] had an IC50 of 10 to 100 nM.
